The nature of data set [1]: Differential Scanning Calorimetry (DSC) of crystalline forms of Org 30659. To be noted: determined by DSC, heating rate 5.0° C./min, from the melting peak. The format is physicochemical. On the procedure:
Differential Scanning Calorimetry (DSC)
DSC curves were recorded using a Seiko DSC-120 instrument. Closed aluminium pans having a volume of 5 μl were used in combination with a nitrogen flow of 50 ml/min. The heating rate was 5.0° C./min.
DSC curves of crystalline forms of Org 30659. The horizontal axis represents the temperature in ° C. (heating), the vertical axis represents heat in μW or mW.
In general terms: Differential scanning calorimetry records heat flow against a reference as temperature is scanned.

The nature of data set [2]: Relative stability of crystalline forms on heating / in boiling water. The format is physicochemical. To be noted: at temperatures below 155° C., including subjection to boiling water.

“And” between values parts separate entries of the source, which are not always exact repeats. Identical values can stand only once.

As to `C#C[C@]1(O)C=C[C@H]2[C@@H]3CCC4=CC(=O)CC[C@@H]4[C@H]3C(=C)C[C@@]21C` [form (A), (17α)-17-hydroxy-11-methylene-19-norpregna-4,15-diene-20-yn-3-one], the “thermodynamic stability, enthalpy ΔH” value in data set [1] was 84.3 mJ/mg and 84 mJ/mg. Further, the “relative stability of the crystalline form” value in data set [2] is given as “the most stable one”.
As to `C#C[C@]1(O)C=C[C@H]2[C@@H]3CCC4=CC(=O)CC[C@@H]4[C@H]3C(=C)C[C@@]21C` [form (B), (17α)-17-hydroxy-11-methylene-19-norpregna-4,15-diene-20-yn-3-one], in data set [1], the “thermodynamic stability, enthalpy ΔH” value was 70 mJ/mg and 70.4 mJ/mg.
Take `C#C[C@]1(O)C=C[C@H]2[C@@H]3CCC4=CC(=O)CC[C@@H]4[C@H]3C(=C)C[C@@]21C` [form (C), (17α)-17-hydroxy-11-methylene-19-norpregna-4,15-diene-20-yn-3-one]: the “thermodynamic stability, enthalpy ΔH” value in data set [1] and in data set [1] (listed as form C) was 71.9 mJ/mg throughout.

For the origin of these results see patent US20020010166A1, “CRYSTALLINE PROGESTAGENS” (priority 1997, published 2002).
